From publication PMC5125025 (Science (New York, N.Y.), 2015)

Columns and labels:
RsTSPO A139T mutant = RsTSPO A139T mutant (Cereibacter sphaeroides, UniProt Q9RFC8, A139T); experiment: Ligand binding affinity of purified RsTSPO A139T mutant; set-up: species or system Rhodobacter sphaeroides
RsTSPO WT = conditions: cited from earlier work

Chain of RsTSPO A139T mutant (Q9RFC8 whole entry A139T): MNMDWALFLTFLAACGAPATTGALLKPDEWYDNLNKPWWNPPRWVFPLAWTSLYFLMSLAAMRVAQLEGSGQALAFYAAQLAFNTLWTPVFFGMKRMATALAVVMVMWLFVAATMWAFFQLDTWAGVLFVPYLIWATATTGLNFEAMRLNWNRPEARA

| Compound | Kd (RsTSPO A139T mutant) | affinities of RsTSPO for ligands (range in words) (RsTSPO WT) |
| --- | --- | --- |
| CC(C)CCC[C@@H](C)[C@H]1CC[C@H]2[C@@H]3CC=C4C[C@@H](O)CC[C@]4(C)[C@H]3CC[C@]12C [cholesterol] | > 300 µM | high nanomolar to micromolar range |
| CCC(C)N(C)C(=O)c1cc2ccccc2c(-c2ccccc2Cl)n1 (stereo not drawn) [PK11195] | 42 ± 4 µM | high nanomolar to micromolar range |
| C=CC1=C(C)c2cc3[nH]c(cc4nc(cc5[nH]c(cc1n2)c(C)c5CCC(=O)O)C(CCC(=O)O)=C4C)c(C)c3C=C [PpIX, protoporphyrin IX] | 1.9 ± 0.3 µM | high nanomolar to micromolar range |
